Legend:
[1] = tested on: AML patients (1 month to 29.9 years old); conditions: previously reported, cited from earlier work
[2] = tested on: AML patients (1 month to 29.9 years old); assay: COG-AAML0531 clinical trial, ADE vs ADE+GO arms: MRD1, EFS and OS overall and by ACS10 score and CD33 SNP; format: in vivo, human; conditions: low ACS10 score
Experimental: AAML0531 clinical trial enrolled previously untreated AML patients (1 month to 29.9 years old) who were randomized to receive ADE (cytarabine 100 mg/m^2/dose twice per day for […] alongside with daunorubicin and etoposide-equivalent to LDAC arm of St. Jude AML02) with or without the addition of 1 dose in induction 1 and 1 dose in intensification of CD33-targeting drug gemtuzumab ozogamicin (ADE+GO arm). Genotype data on 10 SNPs that were part of the ACS10 score in the discovery cohort was generated in 931 patients (n=465 in standard ADE arm and n=466 in ADE+GO arm). […] In subsequent analysis to check whether ACS10 score has impact on the GO addition, the evaluation of patients from the ADE+GO arm was also considered.
The association of MRD1, EFS, and OS was evaluated with ACS10 scores in the AML02 discovery cohort and the AAML0531 validation cohort. The Kaplan-Meier method was used to estimate the EFS and OS probabilities for well-defined groups of patients. Cox regression models were used to associate ACS10 with EFS and OS and used logistic regression models to associate ACS10 with MRD1. The Wilcoxon rank-sum test and Kruskal-Wallis test were used to compare medians of numeric variables across groups. Chi-square tests and Fisher's exact test were used to evaluate the association among pairs of categorical variables. All p-values are two-sided. […]

gemtuzumab ozogamicin [GO]
benefit from addition of GO to standard chemotherapy ([1]; CD33 rs12459419 CT/TT genotypes, ADE+GO versus ADE): derived no benefit from addition of GO
survival (EFS and DFS) with addition of GO to standard chemotherapy ([1]; CD33 rs12459419 homozygous CC genotype): significantly better survival
benefit from adding GO (EFS and OS) ([2]; CD33 rs12459419 CC genotype): benefit from adding GO
benefit from addition of GO (EFS and OS) ([2]; CT/TT genotype for CD33 rs12459419): do not benefit from addition of GO

From patent US20240344145A1, “PHARMACOGENOMICS SCORE TO MAKE DECISIONS ON THERAPY AUGMENTATION IN AML” (University of Florida Research Foundation, Incorporated, priority 2021, published 2024)
